According to patent publication US20250034216A1, “STEREOSELECTIVE COVALENT LIGANDS FOR ONCOGENIC AND IMMUNOLOGICAL PROTEINS” (The Scripps Research Institute, priority 2021, published 2025):
Peptide text beside a SMILES is read from it. * marks the point of attachment. Cbz = O=C(OCc1ccccc1)*

How the values were obtained:
[1] = test system: SIINFEKL presentation in E.G7-Ova cells; assay: FACS analysis with citric acid wash; type: cell-based, mouse; conditions: 4 h treatment, recovery up to 4 h
Description: (§1) E.G7-Ova cells (2 million/mL) were treated with compounds for 4 hours, washed with PBS, and then washed with 1 mL of 131 mM citric acid for 2 minutes, quenched with 1 mL 66 mM NaH2PO4, and then washed with PBS 3 times. Cells were then resuspended in warm RPMI and allowed to recover for the indicated period, after which cells were washed with PBS and transferred to 96 well plates for staining. Each well was washed with 200 μL PBS, and then stained for 20 minutes with 50 μL of staining solution: 1:1000 fixable near-IR LIVE/DEAD stain (Invitrogen) and 1:200 dilution of anti-SIINFEKL (BioLegend) or anti-Kb (BioLegend) antibody in FACS buffer (2% FBS in PBS supplemented with PenStrep and sterile filtered). Additional wells were used as unstained or singly-stained controls. After staining, cells were washed with PBS, then fixed in 200 μL 4% paraformaldehyde in PBS for 15 minutes. Cells were resuspended in 75 μL FACS buffer and analyzed on a Novocyte flow cytometer. The corresponding data in FIG. 2J are presented as the average percentage of median fluorescence intensity relative to DMSO treated control±SD from n=4 replicates. The corresponding data in FIG. 2K are presented as the average percentage of MFI relative to DMSO treated control±SD from n=3 replicates. Statistical analysis was performed using GraphPad PRISM Version 9.0.0.

[2] = test system: overall MHC-I presentation in E.G7-Ova cells; assay: FACS analysis with citric acid wash; type: cell-based, mouse; conditions: 4 h treatment, recovery up to 4 h
Description: as §1

[3] = biological target: T1, recombinant FLAG-PSME1 (PSME1_C22) (Homo sapiens, UniProt Q06323); assay: Gel-based ABPP for PSME1 cysteine engagement; type: binding; conditions: HEK293T lysates, WT or C22A FLAG-PSME1, 2.5 μM, 30 min
T1 construct: FLAG (C); expressed in transfected cells; host or cells: HEK293T (lysate treated in vitro)
T1 sequence (Q06323 whole entry): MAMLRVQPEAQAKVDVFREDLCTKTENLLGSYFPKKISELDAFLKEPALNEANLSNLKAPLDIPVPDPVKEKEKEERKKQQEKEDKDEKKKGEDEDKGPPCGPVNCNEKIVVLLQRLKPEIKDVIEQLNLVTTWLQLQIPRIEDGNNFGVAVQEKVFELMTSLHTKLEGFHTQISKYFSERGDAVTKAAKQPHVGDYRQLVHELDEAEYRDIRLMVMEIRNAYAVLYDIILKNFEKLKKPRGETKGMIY
Description: C-terminally FLAG-tagged PSME1 WT or C22A were transiently expressed in HEK293T cells, harvested 48 hours later, then cells were divided into aliquots, flash frozen and stored at −80 C. On the day of the experiment, an aliquot of cells were thawed, lysed by sonication in ice-cold PBS supplemented with cOmplete protease inhibitors (1 tablet/10 mL of PBS). normalized to 2.0 mg/mL, and divided into 25 μL aliquots. 1 μL of DMSO or compound (25× stock) was incubated with lysates for 1.5 hours at RT, followed by incubation with 1 μL of 62.5 μM MY-11B click probe (final concentration […]) for an additional 30 minutes. Reagents for the CuAAC click reaction were pre-mixed prior to addition to the samples. After 1 hour of click labeling, 4×SDS running buffer was added to samples, which were then analyzed by SDS-PAGE. ImageJ was used to quantify rhodamine band intensities, and GraphPad PRISM Version 9.0.0 was used to generate IC50 curves (four-parameter variable slope least squares regression).

[4] = biological target: T2, SF3B1 (~150 kDa protein) (Homo sapiens, UniProt O75533+Q7RTV0); assay: Gel-based ABPP for SF3B1 cysteine engagement; type: binding; conditions: 22Rv1 cells, 1 μM alkyne probe, 1 h
T2 construct: Cysteine engagement data from 22Rv1 cells treated; endogenous in cells; host or cells: 22Rv1
T2 sequence (O75533 whole entry): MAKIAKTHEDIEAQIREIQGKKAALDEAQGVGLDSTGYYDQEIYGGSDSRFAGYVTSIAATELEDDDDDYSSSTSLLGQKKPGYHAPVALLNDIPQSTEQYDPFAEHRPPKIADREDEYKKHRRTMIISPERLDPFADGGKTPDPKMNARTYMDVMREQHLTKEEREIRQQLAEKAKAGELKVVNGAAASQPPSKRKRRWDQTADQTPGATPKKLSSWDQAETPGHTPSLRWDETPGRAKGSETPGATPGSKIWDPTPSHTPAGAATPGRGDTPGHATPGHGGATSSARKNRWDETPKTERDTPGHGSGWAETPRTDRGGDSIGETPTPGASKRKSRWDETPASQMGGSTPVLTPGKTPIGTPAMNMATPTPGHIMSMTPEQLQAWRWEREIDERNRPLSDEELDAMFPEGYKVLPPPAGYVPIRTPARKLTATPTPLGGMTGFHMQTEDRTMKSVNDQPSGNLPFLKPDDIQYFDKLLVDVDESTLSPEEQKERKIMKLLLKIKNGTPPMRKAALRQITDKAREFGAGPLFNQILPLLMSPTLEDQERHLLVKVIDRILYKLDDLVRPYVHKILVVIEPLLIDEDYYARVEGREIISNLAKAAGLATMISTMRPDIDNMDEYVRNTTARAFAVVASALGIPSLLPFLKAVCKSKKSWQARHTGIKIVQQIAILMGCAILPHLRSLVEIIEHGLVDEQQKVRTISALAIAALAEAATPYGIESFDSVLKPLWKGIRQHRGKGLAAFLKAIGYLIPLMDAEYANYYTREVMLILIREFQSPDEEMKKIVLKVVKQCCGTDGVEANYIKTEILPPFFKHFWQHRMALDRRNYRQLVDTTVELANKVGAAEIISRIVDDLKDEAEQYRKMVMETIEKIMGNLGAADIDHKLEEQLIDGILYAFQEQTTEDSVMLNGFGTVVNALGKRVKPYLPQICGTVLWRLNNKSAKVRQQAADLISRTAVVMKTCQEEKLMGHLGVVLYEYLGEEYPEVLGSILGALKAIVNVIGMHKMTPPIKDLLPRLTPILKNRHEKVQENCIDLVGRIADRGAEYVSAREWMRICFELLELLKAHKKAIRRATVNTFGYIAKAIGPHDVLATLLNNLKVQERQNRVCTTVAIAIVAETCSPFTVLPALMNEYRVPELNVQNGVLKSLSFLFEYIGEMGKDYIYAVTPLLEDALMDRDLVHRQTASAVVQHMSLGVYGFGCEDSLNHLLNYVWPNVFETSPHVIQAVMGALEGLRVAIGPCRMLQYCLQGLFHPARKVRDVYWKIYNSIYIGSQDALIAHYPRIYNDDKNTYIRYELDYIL
T2 sequence (Q7RTV0 whole entry): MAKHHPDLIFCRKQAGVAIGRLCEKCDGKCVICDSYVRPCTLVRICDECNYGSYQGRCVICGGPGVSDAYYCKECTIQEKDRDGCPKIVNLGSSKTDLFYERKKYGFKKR
T2 sequence (Q15393 whole entry partner): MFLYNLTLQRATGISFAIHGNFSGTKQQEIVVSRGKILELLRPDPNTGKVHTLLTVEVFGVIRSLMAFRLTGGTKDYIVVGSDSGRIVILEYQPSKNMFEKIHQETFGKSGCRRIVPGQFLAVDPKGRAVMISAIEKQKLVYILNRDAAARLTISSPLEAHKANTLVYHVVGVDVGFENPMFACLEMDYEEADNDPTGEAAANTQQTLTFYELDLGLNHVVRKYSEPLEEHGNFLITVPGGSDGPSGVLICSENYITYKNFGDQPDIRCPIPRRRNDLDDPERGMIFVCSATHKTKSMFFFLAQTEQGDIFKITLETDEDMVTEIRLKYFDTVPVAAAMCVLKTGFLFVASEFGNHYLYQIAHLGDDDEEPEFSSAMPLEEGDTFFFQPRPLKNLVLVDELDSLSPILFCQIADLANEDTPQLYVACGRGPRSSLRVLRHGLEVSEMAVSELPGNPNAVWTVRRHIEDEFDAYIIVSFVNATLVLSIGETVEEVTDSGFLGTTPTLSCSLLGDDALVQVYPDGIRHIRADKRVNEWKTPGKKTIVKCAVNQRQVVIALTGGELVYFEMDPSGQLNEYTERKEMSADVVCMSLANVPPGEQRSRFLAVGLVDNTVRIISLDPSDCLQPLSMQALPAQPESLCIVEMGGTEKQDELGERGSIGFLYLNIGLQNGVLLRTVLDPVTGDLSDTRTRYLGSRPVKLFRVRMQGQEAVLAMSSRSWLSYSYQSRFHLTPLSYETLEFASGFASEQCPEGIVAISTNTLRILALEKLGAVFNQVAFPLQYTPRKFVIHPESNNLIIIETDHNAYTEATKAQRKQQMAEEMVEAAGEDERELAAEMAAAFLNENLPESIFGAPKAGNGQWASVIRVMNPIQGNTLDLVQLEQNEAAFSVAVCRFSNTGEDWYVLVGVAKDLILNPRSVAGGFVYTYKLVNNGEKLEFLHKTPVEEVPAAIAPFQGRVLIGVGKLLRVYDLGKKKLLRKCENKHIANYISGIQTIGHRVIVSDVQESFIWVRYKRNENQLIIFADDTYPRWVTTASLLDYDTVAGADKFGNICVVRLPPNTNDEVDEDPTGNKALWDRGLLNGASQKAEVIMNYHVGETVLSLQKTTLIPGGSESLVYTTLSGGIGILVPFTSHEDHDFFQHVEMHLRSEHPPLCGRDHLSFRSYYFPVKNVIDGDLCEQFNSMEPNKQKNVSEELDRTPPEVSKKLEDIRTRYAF
T2 sequence (Q9BWJ5 whole entry partner): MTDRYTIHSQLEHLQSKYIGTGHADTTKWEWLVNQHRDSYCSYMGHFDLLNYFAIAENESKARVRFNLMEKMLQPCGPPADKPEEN
Description: 22Rv1 cells were treated with indicated compounds for 24 h, chased with click probe for 1 h in situ, harvested and lysed in PBS with protease inhibitors (cOmplete), and then normalized to 2.0 mg/mL. Reagents for the CuAAC click reaction were pre-mixed prior to addition to the samples (3 μL of click reaction mix for 25 μL of lysate). After 1 hour of click labeling, 4×SDS running buffer was added to samples, which were then analyzed by SDS-PAGE.

[5] = test system: 22Rv1 cells; assay: Proliferation assay (CellTiter Glo); type: cell-based, human; conditions: 72 h
Description: Cells were seeded at 5000 cells per well (50 μL medium) in 96-well flat bottom white wall plates. After 24 h, 50 μL of medium containing DMSO or compound dilutions (2× final concentration from 1000× stocks) were added to the wells. At the time of compound addition, a reference plate to determine the cell population density at time 0 (TO) was assayed using CellTiter Glo reagent (50 μL added to each well). After 72 h in culture, the remaining plates were assayed using CellTiter Glo. After 30 min of shaking at room temperature, luminescence was analyzed using a CLARIOstar (BMG Labtech) plate reader. Raw values were normalized using GraphPad PRISM software version 9.0.0. Lines of best fit were generated using a four-parameter variable slope least squares regression.

[6] = test system: p27; assay: anti-p27 western blot; type: cell-based, human; conditions: 22Rv1 cells, 24 h
[7] = test system: mRNA splicing in 22Rv1 cells; assay: RNA sequencing, alternative splicing (rMATS); type: cell-based, human; conditions: 8 hr, RNA-seq
Description: RNA sequencing libraries were prepared using the NEBNext Ultra II RNA Library Prep Kit for Illumina following manufacturer's instructions (NEB, Ipswich, MA, USA). mRNAs were first enriched with Oligo(dT) beads. Enriched mRNAs were fragmented for 15 minutes at 94° C. First strand and second strand cDNAs were subsequently synthesized. cDNA fragments were end repaired and adenylated at 3′ends, and universal adapters were ligated to cDNA fragments, followed by index addition and library enrichment by limited-cycle PCR. The sequencing libraries were validated on the Agilent TapeStation (Agilent Technologies, Palo Alto, CA, USA), and quantified by using Qubit 2.0 Fluorometer (Invitrogen, Carlsbad, CA) as well as by quantitative PCR (KAPA Biosystems, Wilmington, MA, USA). FASTQ files were first trimmed using Trim_galore (v0.6.4) to remove sequencing adapters and low quality (Q<15) reads. Trimmed sequencing reads were aligned to the human Hg19 reference genome (GENCODE, GRCh37.p13) using STAR (v2.7.5). SAM files were subsequently converted to BAM files, sorted, and indexed using samtools (v1.9). […] Read counting across genomic features was performed using featureCounts (part of the subread package; v1.5.0) using the following parameters: -p -T 20 -O -F GTF -t exon. […]
For quantification of alternative RNA splicing, BAM files generated by STAR/Samtools were analyzed using rMATS (v4.1.1) using the GENCODE (v19) GTF annotation for Hg19 (GRCh37.p13) and the following parameters: -t paired --libType fr-unstranded—readLength 150—novelSS. To utilize reads shorted than 150b.p. resulting from adapter and/or QC trimming by trim_galore, rMATS was programmed to accept soft-clipped reads of variable length. Enumeration of isoform counts was performed using only reads that span the splice junction directly. To identify high confidence AS events, events were considered significant if (i) the inclusion level difference was greater than 20% compared to DMSO, (ii) the False Discovery Rate (FDR) was smaller than 0.05, and (iii) there were a minimum of 20 reads mapping to the splice junction. […]

[8] = test system: SF3B1 interacting proteins; assay: SF3B1 co-immunoprecipitation-MS; type: cell-based, human; conditions: HEK293T cells, 5 μM WX-02-23 or 10 nM pladienolide B, 3 h
Description: HEK293T cells were treated in situ with DMSO, 5 μM of WX-02-23/WX-02-43, or 10 nM pladienolide B for 3 hours. Cells were harvested, washed with ice-cold PBS, and lysed in ColP lysis buffer (0.5% NP-40, 100 mM EPPS, 150 mM NaCl, cOmplete protease inhibitor). Lysates centrifuged at 16,000 g for 3 minutes, normalized to 2.0 mg/mL and 500 μL of each lysate was aliquoted to a clean eppendorf tube.
Lysates were incubated with 5 μL of anti-IgG or anti-SF3B1 (CST) for 2 hours at 4 C, followed by 1 hour with 25 μL of protein-A agarose beads. Bead were washed twice with ColP lysis buffer, and then twice with 100 mM EPPS, followed by elution with 8 M urea in EPPS at 65 C for 10 min. […] Samples were then trypsinized at 37 C overnight (2 ug of trypsin per sample), then TMT labeled and desalted.

CC(C)C[C@@H](C=O)NC(=O)[C@H](CC(C)C)NC(=O)[C@H](CC(C)C)NC(=O)OCc1ccccc1 [MG132, reference compound] (Cbz-Leu-Leu-Leu-aldehyde)
SIINFEKL presentation after acid wash [1]: suppressed both SIINFEKL peptide and MHC-I presentation | overall MHC-I presentation after acid wash [2]: suppressed both SIINFEKL peptide and MHC-I presentation

C#Cc1ccc([C@H]2CN(C(=O)C=C)[C@H]2C(=O)Nc2cccc3cccnc23)cc1 [MY-11B, (2R,3S)-1-acryloyl-3-(4-ethynylphenyl)-N-(quinolin-8-yl)azetidine-2-carboxamide]
alkyne probe labeling of PSME1_C22 (CuAAC, azide-rhodamine) [3]: site-specific and stereoselective engagement

C#CCOc1ccc2[nH]c3c(c2c1)C[C@@H](C(=O)OC)N(C(=O)C=C)[C@@H]3c1ccc2c(c1)OCO2 [WX-01-10, methyl (1R,3S)-2-acryloyl-1-(benzo[d][1,3]dioxol-5-yl)-6-(prop-2-yn-1-yloxy)-2,3,4,9-tetra-hydro-1H-pyrido[3,4-b]indole-3-carboxylate]
alkyne probe labeling of ~150 kDa protein [4]: labeled an ˜150 kDa protein

pladienolide B [reference compound]
anti-proliferative effect [5]: strong anti-proliferative activity | p27 expression [6]: induced expression of p27 | mRNA splicing changes [7]: induction of both intron retention and exon skipping events | SF3B1 interactions (DDX42 association) [8]: similar, but not identical reshaping of SF3B1 interactions
